The record followed here is PubChem BioAssay (NCI).

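Five compound concentrations were applied to cells in 96-well plates for 48 hours; endpoints were derived by simple linear interpolation of the resulting dose-response curve. At the GI50, growth is halved. TGI is the concentration that stops growth completely.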

Some test systems named below: A549 NSCLC; HCC-2998 colon; HCT-116 colon; HS 578T breast; MDA-MB-231 breast; MDA-MB-435; OVCAR-3 ovarian; SK-OV-3 ovarian; MALME-3M melanoma; RPMI-8226 leukemia.
Assay in all cases: NCI anticancer screen, dose series, 48 h

Turning to `Fc1ccc2c(c1)c(-c1nc(-c3c[nH]c4ncccc34)cs1)cn2CCCN1CCCCC1`, the GI50 with A549 NSCLC is 1.91 µM; with HCC-2998 colon, 1.7 µM; in the experiment on HCT-116 colon it was 1.75 µM; in the experiment on HS 578T breast it was 2.59 µM; with MDA-MB-231 breast, 1.69 µM; in the experiment with MDA-MB-435, 1.66 µM. Besides, the figures for the GI50 in the experiment on OVCAR-3 ovarian and in the experiment on SK-OV-3 ovarian were 1.63 µM and 1.81 µM, respectively. Moreover, the TGI with A549 NSCLC worked out at 3.62 µM; in the experiment with HCC-2998 colon it was 3.14 µM; in the experiment on HCT-116 colon, 3.3 µM; with HS 578T breast, 7.69 µM; with MDA-MB-231 breast, 3.18 µM; in the experiment with MDA-MB-435, 3.17 µM. Moreover, the TGI with OVCAR-3 ovarian came out at 3.12 µM; in the experiment on SK-OV-3 ovarian, 3.43 µM.
Take `COc1ccc(/C=C\c2cc(OC)c(OC)c(OC)c2)cc1OC(=O)c1cccc(Cn2cc(CCOC(=O)[C@H](N)Cc3cn(C)c4ccccc34)nn2)c1`: the GI50 is 0.0322 µM in the experiment with A549 NSCLC; 0.0198 µM in the experiment with HCC-2998 colon; under 0.01 µM in the experiment on HCT-116 colon; under 0.01 µM in the experiment on HS 578T breast; 0.081 µM with MALME-3M melanoma; under 0.01 µM with MDA-MB-231 breast. Also, the values for the GI50 in the experiment on OVCAR-3 ovarian, in the experiment on RPMI-8226 leukemia and with SK-OV-3 ovarian were under 0.01 µM, under 0.01 µM and 0.455 µM, respectively. Also, the TGI in the experiment with A549 NSCLC was over 100 µM; in the experiment on HCC-2998 colon it was 1.7 µM; with HCT-116 colon, 38.7 µM; in the experiment with HS 578T breast it was over 100 µM; in the experiment on MALME-3M melanoma it was 25.6 µM; with MDA-MB-231 breast, over 51.9 µM. The TGI is 18.9 µM in the experiment on OVCAR-3 ovarian, 2.23 µM in the experiment with RPMI-8226 leukemia and over 100 µM in the experiment on SK-OV-3 ovarian.
As for `O=NNc1ccc(S(=O)(=O)c2ccccc2)cn1`, the TGI in the experiment with A549 NSCLC, with HCC-2998 colon, in the experiment on HCT-116 colon, in the experiment on HS 578T breast, in the experiment with MALME-3M melanoma and in the experiment with MDA-MB-231 breast was over 100 µM throughout. In addition, the TGI in the experiment on OVCAR-3 ovarian and in the experiment on SK-OV-3 ovarian was over 100 µM each time.
For `Cc1ccc(/C=C2/SC(Nc3nc(-c4csc(NC5=NC(=O)/C(=C\c6ccc(C)cc6)S5)n4)cs3)=NC2=O)cc1`, the GI50 with A549 NSCLC was 7 µM; in the experiment on HCC-2998 colon, 7.23 µM; with HS 578T breast, 21.9 µM; in the experiment on MDA-MB-231 breast, 9.76 µM; in the experiment with OVCAR-3 ovarian, 3.28 µM. Besides, the TGI is 47.6 µM with A549 NSCLC; 27.7 µM with HCC-2998 colon; over 50 µM in the experiment on HS 578T breast; 40.6 µM in the experiment with MDA-MB-231 breast; 33.9 µM in the experiment on OVCAR-3 ovarian.
Regarding `C#CCC(Cc1cnc2nc(N)nc(N)c2n1)c1ccc(C(=O)N[C@@H](CCC(=O)O)C(=O)O)cc1` (stereo partly specified), the GI50 is under 0.01 µM in the experiment with A549 NSCLC; 0.0103 µM in the experiment with HCC-2998 colon; under 0.01 µM with HCT-116 colon; over 100 µM in the experiment on HS 578T breast; over 44 µM with MALME-3M melanoma; under 0.01 µM in the experiment on MDA-MB-435. Besides, the results for the GI50 with OVCAR-3 ovarian, in the experiment with RPMI-8226 leukemia and in the experiment with SK-OV-3 ovarian were under 0.0135 µM, under 0.01 µM and under 0.01 µM, respectively. Besides, the TGI in the experiment on A549 NSCLC, in the experiment on HCC-2998 colon, with HCT-116 colon, in the experiment with HS 578T breast, with MALME-3M melanoma and with MDA-MB-435 was over 100 µM each time. Also, the TGI with OVCAR-3 ovarian, in the experiment on RPMI-8226 leukemia and in the experiment with SK-OV-3 ovarian was over 100 µM throughout.
In the case of `NC(=S)N/N=C(\Cc1nc2ccc(Cl)cc2[nH]c1=O)C(=O)Nc1ccc(Cl)cc1`, the TGI with A549 NSCLC, in the experiment on HCC-2998 colon, in the experiment on HCT-116 colon, in the experiment on HS 578T breast, with MDA-MB-231 breast and with MDA-MB-435 was over 100 µM each time. Further, the TGI with OVCAR-3 ovarian and with SK-OV-3 ovarian was over 100 µM throughout.
With `CCn1c(CN2CCN(Cc3ccccc3)CC2)nc2cc(NC(=O)c3cccs3)ccc21`, the GI50 in the experiment with HCC-2998 colon is 17.3 µM; in the experiment on HCT-116 colon it was 14.4 µM; with HS 578T breast, 16.9 µM; in the experiment on MALME-3M melanoma, 18.6 µM; in the experiment with MDA-MB-231 breast it was 16.9 µM; in the experiment with MDA-MB-435 it was 14.8 µM. The GI50 in the experiment on OVCAR-3 ovarian was 20.6 µM; with RPMI-8226 leukemia, 15.8 µM; in the experiment on SK-OV-3 ovarian, 25.7 µM. The TGI in the experiment with HCC-2998 colon is 35.6 µM; with HCT-116 colon, 38.7 µM; with HS 578T breast, 48.8 µM; with MALME-3M melanoma, 37.3 µM; in the experiment on MDA-MB-231 breast, over 100 µM; with MDA-MB-435, 28.9 µM. Further, the TGI with OVCAR-3 ovarian is over 100 µM; with RPMI-8226 leukemia, 46.1 µM; with SK-OV-3 ovarian it was 71.6 µM.
Consider `Cc1ccc(-n2c3c(c4c(CN(C)C)c(O)ccc42)CCc2ccccc2C3=O)cc1`, for which the GI50 was 16.7 µM in the experiment with A549 NSCLC; 12.2 µM in the experiment on HCC-2998 colon; 14.4 µM in the experiment with HCT-116 colon; 21.3 µM in the experiment on HS 578T breast; 14.9 µM in the experiment on MDA-MB-231 breast; 15.2 µM in the experiment on MDA-MB-435. The GI50 with OVCAR-3 ovarian is 21.4 µM; with RPMI-8226 leukemia, 11 µM; in the experiment with SK-OV-3 ovarian, over 100 µM. Besides, the TGI in the experiment on A549 NSCLC was found to be 33.8 µM; in the experiment with HCC-2998 colon it was 24.9 µM; in the experiment with HCT-116 colon it was 27.8 µM; in the experiment on HS 578T breast, 57.7 µM; in the experiment on MDA-MB-231 breast, 31 µM; in the experiment on MDA-MB-435, 30.4 µM. For the same compound, the TGI in the experiment with OVCAR-3 ovarian is 44.5 µM; in the experiment on RPMI-8226 leukemia, 30.5 µM; in the experiment with SK-OV-3 ovarian, over 100 µM.
Turning to `O=C1C(Cl)=C(Nc2cccc(Cl)c2)C(=O)N1Cc1ccccc1Cl`, the GI50 with A549 NSCLC is 10.2 µM; in the experiment on HCT-116 colon it was 1.03 µM; with HS 578T breast, 9.4 µM; in the experiment with MDA-MB-231 breast, 2.4 µM; in the experiment with MDA-MB-435 it was 1.01 µM; with OVCAR-3 ovarian, 2.14 µM. Besides, the GI50 in the experiment on RPMI-8226 leukemia is 1.82 µM. For the same compound, the TGI worked out at 26.5 µM with A549 NSCLC; 4.41 µM with HCT-116 colon; 56.4 µM with HS 578T breast; 15.1 µM in the experiment with MDA-MB-231 breast; 4.09 µM in the experiment on MDA-MB-435; 16.1 µM in the experiment with OVCAR-3 ovarian. In the experiment on RPMI-8226 leukemia, the TGI was determined as 26 µM.
In the case of `CCOC(=O)N1CCc2cc(OC)c(OC)c3c2c1cc1cc(OC)c(OC)cc13`, the TGI in the experiment on A549 NSCLC is over 100 µM; with HCC-2998 colon, 55.6 µM; in the experiment on HCT-116 colon, 30.7 µM; with MALME-3M melanoma it was 51.5 µM; in the experiment with MDA-MB-231 breast, over 100 µM; with MDA-MB-435, 2.54 µM. In addition, the values for the TGI with OVCAR-3 ovarian, in the experiment with RPMI-8226 leukemia and in the experiment on SK-OV-3 ovarian were 8.64 µM, 60.9 µM and over 51.1 µM, respectively.
With `COc1c(OC)c(OC)c2c(c1OC)c(=O)c1ccccc1n2C`, the TGI in the experiment with A549 NSCLC, in the experiment with HCC-2998 colon, in the experiment on HCT-116 colon, in the experiment with HS 578T breast, with MDA-MB-231 breast and in the experiment with MDA-MB-435 was over 100 µM each time. The TGI in the experiment on OVCAR-3 ovarian, with RPMI-8226 leukemia and in the experiment on SK-OV-3 ovarian was over 100 µM each time.
